Experimental data as given in patent US9334286B2, “Pharmacologically active compounds” (Cancer Research Technology Limited, priority 2012, dated 2016).

Molecular target: full length MPS1 (Homo sapiens (Human), UniProt P33981)
Experiment: Measurement of inhibition of MPS1 kinase (Caliper EZ reader, fluorescent labelled peptide H236)
Format: biochemical
Conditions: full length MPS1 12.5 nM or 3 nM, peptide H236 5 μM, ATP 10 μM, 60 min at room temperature
Experimental: The reaction was carried out for 60 min at room temperature and stopped by the addition of buffer (10 μl) containing 20 mM EDTA, 0.05% (v/v) Brij-35, in 0.1M HEPES-buffered saline (Free acid, Sigma, UK). The plate was read on a Caliper EZ reader II (Caliper Life Sciences).
The reader provides a Software package (‘Reviewer’) which converts the peak heights into % conversion by measuring both product and substrate peak and also allows selection of control well which represent 0% and 100% inhibition respectively. The % inhibition of the compounds is calculated relative to the means of selected control wells. IC50s are determined by testing the compounds at a range of concentrations from 0.25 nM-100 μM. The % inhibitions at each concentration are then fitted to a 4 parameter logistic fit: y=(a+((b−a)/(1+((c/x^d)))) where a=asym min, b=asym max, c=IC50 and d=hill coefficient

Sequence of full length MPS1 (P33981 whole entry): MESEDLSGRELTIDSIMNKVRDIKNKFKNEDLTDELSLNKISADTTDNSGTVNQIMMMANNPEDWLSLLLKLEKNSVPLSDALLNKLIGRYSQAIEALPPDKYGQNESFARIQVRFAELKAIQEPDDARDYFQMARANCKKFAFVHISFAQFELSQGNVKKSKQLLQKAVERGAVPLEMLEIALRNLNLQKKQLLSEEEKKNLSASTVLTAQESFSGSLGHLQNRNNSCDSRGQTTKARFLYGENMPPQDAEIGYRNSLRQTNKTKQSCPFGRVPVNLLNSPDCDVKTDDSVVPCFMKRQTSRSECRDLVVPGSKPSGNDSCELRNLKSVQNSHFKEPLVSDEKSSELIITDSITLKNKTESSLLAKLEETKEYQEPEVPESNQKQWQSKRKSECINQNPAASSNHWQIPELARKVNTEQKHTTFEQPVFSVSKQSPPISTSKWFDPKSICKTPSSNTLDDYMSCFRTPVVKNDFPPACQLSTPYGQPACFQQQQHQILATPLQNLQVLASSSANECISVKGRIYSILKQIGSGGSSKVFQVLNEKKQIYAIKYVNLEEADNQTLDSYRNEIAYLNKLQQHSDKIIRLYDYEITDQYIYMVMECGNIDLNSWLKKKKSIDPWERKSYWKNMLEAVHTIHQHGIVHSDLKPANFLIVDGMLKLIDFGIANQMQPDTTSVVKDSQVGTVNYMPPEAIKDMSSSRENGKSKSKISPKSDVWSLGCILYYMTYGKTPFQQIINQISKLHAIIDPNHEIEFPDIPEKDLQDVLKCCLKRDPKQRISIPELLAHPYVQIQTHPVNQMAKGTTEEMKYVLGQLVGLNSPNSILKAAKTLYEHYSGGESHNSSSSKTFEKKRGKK

Q: Which IC50 does the source give for `COCCn1cc(-c2ccc3cnc(Nc4ccc(-c5cnc(C)n5CCOC)cc4OC)cc3c2)cn1` [Example 31, N-(2-Methoxy-4-(1-(2-methoxyethyl)-2-methyl-1H-imidazol-5-yl)phenyl)-6-(1-(2-methoxyethyl)-1H-pyrazol-4-yl)isoquinolin-3-amine] here?
A: 2 nM

Q: For `COc1cc(-c2cnc(C)n2C)ccc1Nc1cc2cc(-c3cnn(C4COC4)c3)ccc2cn1` [Example 33, N-(4-(1,2-Dimethyl-1H-imidazol-5-yl)-2-methoxyphenyl)-6-(1-(oxetan-3-yl)-1H-pyrazol-4-yl)isoquinolin-3-amine], which IC50 is on record?
A: 3 nM

Q: For `COc1cc(-c2cnc(C)n2C)ccc1Nc1cc2cc(-c3cnn(C)c3CO)ccc2cn1` [Example 34, (4-(3-((4-(1,2-Dimethyl-1H-imidazol-5-yl)-2-methoxyphenyl)amino)isoquinolin-6-yl)-1-methyl-1H-pyrazol-5-yl)methanol], which IC50 is on record?
A: 3 nM

Q: Which IC50 does the source give for `COCCn1c(-c2ccc(Nc3cc4cc(-c5cnn(CC(C)(C)O)c5)ccc4cn3)c(OC)c2)cnc1C` [Example 35, 1-(4-(3-((2-Methoxy-4-(1-(2-methoxyethyl)-2-methyl-1H-imidazol-5-yl)phenyl)amino)-isoquinolin-6-yl)-1H-pyrazol-1-yl)-2-methylpropan-2-ol] here?
A: 3 nM

Q: Which IC50 does the source give for `COc1cc(-c2cnn(C)c2CO)ccc1Nc1cc2cc(-c3cnn(CC(C)(C)O)c3)ccc2cn1` [Example 36, 1-(4-(3-((4-(5-(Hydroxymethyl)-1-methyl-1H-pyrazol-4-yl)-2-methoxyphenyl)amino)-isoquinolin-6-yl)-1H-pyrazol-1-yl)-2-methylpropan-2-ol] here?
A: 3 nM

Q: With `COc1cc(-c2cnc(C)n2C)ccc1Nc1cc2cc(-c3cnn(CC4COC4)c3)ccc2cn1` [Example 37, N-(4-(1,2-Dimethyl-1H-imidazol-5-yl)-2-methoxyphenyl)-6-(1-(oxetan-3-ylmethyl)-1H-pyrazol-4-yl)isoquinolin-3-amine] as the molecule, how does the IC50 read?
A: 5 nM

Q: Which IC50 does the source give for `COc1cc(-c2cnc(C)n2C)ccc1Nc1cc2cc(-c3cnn(C4CCOCC4)c3)ccc2cn1` [Example 39, N-(4-(1,2-Dimethyl-1H-imidazol-5-yl)-2-methoxyphenyl)-6-(1-(tetrahydro-2H-pyran-4-yl)-1H-pyrazol-4-yl)isoquinolin-3-amine] here?
A: 6 nM

Q: How did the IC50 turn out when `COc1cc(-c2nncn2C)ccc1Nc1cc2cc(-c3cnn(CC(C)(C)O)c3)ccc2cn1` [Example 41, 1-(4-(3-((2-Methoxy-4-(4-methyl-4H-1,2,4-triazol-3-yl)phenyl)amino)isoquinolin-6-yl)-1H-pyrazol-1-yl)-2-methylpropan-2-ol] was run?
A: 1 nM

Q: Which IC50 does the source give for `Cc1ncc(-c2ccc(Nc3cc4cc(-c5cnn(CC(C)(C)O)c5)ccc4cn3)c(Cl)c2)n1C` [Example 42, 1-(4-(3-((2-Chloro-4-(1,2-dimethyl-1H-imidazol-5-yl)phenyl)amino)isoquinolin-6-yl)-1H-pyrazol-1-yl)-2-methylpropan-2-ol] here?
A: 3 nM

Q: For `COc1cc(-c2cnc(C)n2C)ccc1Nc1cc2cc(-c3cnn(CC4(O)CCC4)c3)ccc2cn1` [Example 43, 1-((4-(3-((4-(1,2-Dimethyl-1H-imidazol-5-yl)-2-methoxyphenyl)amino)isoquinolin-6-yl)-1H-pyrazol-1-yl)methyl)cyclobutanol], which IC50 is on record?
A: 3 nM

Q: For `COc1cc(-c2cnc(C)n2C)ccc1Nc1cc2cc(-c3cnn(CC(F)(F)F)c3)ccc2cn1` [Example 44, N-(4-(1,2-Dimethyl-1H-imidazol-5-yl)-2-methoxyphenyl)-6-(1-(2,2,2-trifluoroethyl)-1H-pyrazol-4-yl)isoquinolin-3-amine], which IC50 is on record?
A: 4 nM

Q: With `CC(C)(O)Cn1cc(-c2ccc3cnc(Nc4ccc(N5CCOCC5)cc4Cl)cc3c2)cn1` [Example 45, 1-(4-(3-(2-Chloro-4-morpholinophenylamino)isoquinolin-6-yl)-1H-pyrazol-1-yl)-2-methylpropan-2-ol] as the molecule, how does the IC50 read?
A: 45 nM

Q: How did the IC50 turn out when `COc1cc(C(=O)N2CC(OC)C2)ccc1Nc1cc2cc(-c3cnn(CC(C)(C)O)c3)ccc2cn1` [Example 46, (4-(6-(1-(2-Hydroxy-2-methylpropyl)-1H-pyrazol-4-yl)isoquinolin-3-ylamino)-3-methoxy-phenyl)(3-methoxyazetidin-1-yl)methanone] was run?
A: 2 nM

Q: With `Cc1ncc(-c2ccc(Nc3cc4cc(-c5cnn(CC(C)(C)O)c5)ccc4cn3)cc2)n1C` [Example 47, 1-(4-(3-(4-(1,2-Dimethyl-1H-imidazol-5-yl)phenylamino)isoquinolin-6-yl)-1H-pyrazol-1-yl)-2-methylpropan-2-ol] as the molecule, how does the IC50 read?
A: 6 nM

Q: How did the IC50 turn out when `CCOc1cc(-c2nncn2C)ccc1Nc1cc2cc(-c3cnn(CC(C)(C)O)c3)ccc2cn1` [Example 48, 1-(4-(3-(2-Ethoxy-4-(4-methyl-4H-1,2,4-triazol-3-yl)phenylamino)isoquinolin-6-yl)-1H-pyrazol-1-yl)-2-methylpropan-2-ol] was run?
A: 2 nM

Q: Which IC50 does the source give for `COc1cc(C#N)ccc1Nc1cc2cc(-c3cnn(CC(C)(C)O)c3)ccc2cn1` [Example 49, 4-(6-(1-(2-Hydroxy-2-methylpropyl)-1H-pyrazol-4-yl)isoquinolin-3-ylamino)-3-methoxy-benzonitrile] here?
A: 11 nM

Q: How did the IC50 turn out when `COc1c(Nc2cc3cc(-c4cnn(CC(C)(C)O)c4)ccc3cn2)ccc(-c2cnc(C)n2C)c1F` [Example 50, 1-(4-(3-(4-(1,2-Dimethyl-1H-imidazol-5-yl)-3-fluoro-2-methoxyphenylamino)isoquinolin-6-yl)-1H-pyrazol-1-yl)-2-methylpropan-2-ol] was run?
A: 2 nM

Q: With `COCc1c(-c2ccc(Nc3cc4cc(-c5cnn(CC(C)(C)O)c5)ccc4cn3)c(OC)c2)cnn1C` [Example 51, 1-(4-(3-(2-Methoxy-4-(5-(methoxymethyl)-1-methyl-1H-pyrazol-4-yl)phenylamino)isoquinolin-6-yl)-1H-pyrazol-1-yl)-2-methylpropan-2-ol] as the molecule, how does the IC50 read?
A: 4 nM

Q: With `COc1cc(-c2cnn(C)c2)ccc1Nc1cc2cc(-c3cnn(CC(C)(C)O)c3)ccc2cn1` [Example 52, 1-(4-(3-(2-Methoxy-4-(1-methyl-1H-pyrazol-4-yl)phenylamino)isoquinolin-6-yl)-1H-pyrazol-1-yl)-2-methylpropan-2-ol] as the molecule, how does the IC50 read?
A: 4 nM

Q: With `COc1cc(-c2cnn(C)c2C)ccc1Nc1cc2cc(-c3cnn(CC(C)(C)O)c3)ccc2cn1` [Example 53, 1-(4-(3-(4-(1,5-Dimethyl-1H-pyrazol-4-yl)-2-methoxyphenylamino)isoquinolin-6-yl)-1H-pyrazol-1-yl)-2-methylpropan-2-ol] as the molecule, how does the IC50 read?
A: 4 nM

Q: For `COc1cc(F)ccc1Nc1cc2cc(-c3cnn(CC(C)(C)O)c3)ccc2cn1` [Example 54, 1-(4-(3-(4-Fluoro-2-methoxyphenylamino)isoquinolin-6-yl)-1H-pyrazol-1-yl)-2-methylpropan-2-ol], which IC50 is on record?
A: 65 nM

Q: `COc1cc(-c2nnc3n2CCN(C(=O)OC(C)(C)C)C3)ccc1Nc1cc2cc(-c3cnn(CC(C)(C)O)c3)ccc2cn1` [Example 55, tert-Butyl 3-(4-(6-(1-(2-hydroxy-2-methylpropyl)-1H-pyrazol-4-yl)isoquinolin-3-ylamino)-3-methoxyphenyl)-5,6-dihydro-[1,2,4]triazolo[4,3-a]pyrazine-7(8H)-carboxylate] was tested. Which IC50 did it give?
A: 3 nM

Q: Which IC50 does the source give for `COc1nc(-c2cnc(C)n2C)ccc1Nc1cc2cc(-c3cnn(CC(C)(C)O)c3)ccc2cn1` [Example 56, 1-(4-(3-(6-(1,2-Dimethyl-1H-imidazol-5-yl)-2-methoxypyridin-3-ylamino)isoquinolin-6-yl)-1H-pyrazol-1-yl)-2-methylpropan-2-ol] here?
A: 3 nM

Q: Which IC50 does the source give for `COc1cc(-c2cnc(C)n2C)cnc1Nc1cc2cc(-c3cnn(CC(C)(C)O)c3)ccc2cn1` [Example 57, 1-(4-(3-((5-(1,2-Dimethyl-1H-imidazol-5-yl)-3-methoxypyridin-2-yl)amino)isoquinolin-6-yl)-1H-pyrazol-1-yl)-2-methylpropan-2-ol] here?
A: 3 nM

Q: With `CC(C)(O)Cn1cc(-c2ccc3cnc(Nc4ccc(-c5cncnc5)cc4Cl)cc3c2)cn1` [Example 58, 1-(4-(3-((2-Chloro-4-(pyrimidin-5-yl)phenyl)amino)isoquinolin-6-yl)-1H-pyrazol-1-yl)-2-methylpropan-2-ol] as the molecule, how does the IC50 read?
A: 5 nM

Q: `CC(C)(O)Cn1cc(-c2ccc3cnc(Nc4ccc(S(C)(=O)=O)cc4Cl)cc3c2)cn1` [Example 59, 1-(4-(3-((2-Chloro-4-(methylsulfonyl)phenyl)amino)isoquinolin-6-yl)-1H-pyrazol-1-yl)-2-methylpropan-2-ol] was tested. Which IC50 did it give?
A: 4 nM

Q: Which IC50 does the source give for `COc1cc(C(=O)N(C)C)ccc1Nc1cc2cc(-c3cnn(CC(C)(C)O)c3)ccc2cn1` [Example 60, 4-((6-(1-(2-Hydroxy-2-methylpropyl)-1H-pyrazol-4-yl)isoquinolin-3-yl)amino)-3-methoxy-N,N-dimethylbenzamide] here?
A: 2 nM

Q: For `COc1cc(C(=O)NCCO)ccc1Nc1cc2cc(-c3cnn(CC(C)(C)O)c3)ccc2cn1` [Example 61, 4-((6-(1-(2-Hydroxy-2-methylpropyl)-1H-pyrazol-4-yl)isoquinolin-3-yl)amino)-N-(2-hydroxyethyl)-3-methoxybenzamide], which IC50 is on record?
A: 2 nM

Q: How did the IC50 turn out when `COCCNC(=O)c1ccc(Nc2cc3cc(-c4cnn(CC(C)(C)O)c4)ccc3cn2)c(OC)c1` [Example 62, 4-((6-(1-(2-Hydroxy-2-methylpropyl)-1H-pyrazol-4-yl)isoquinolin-3-yl)amino)-3-methoxy-N-(2-methoxyethyl)benzamide] was run?
A: 3 nM

Q: For `COCc1ncc(-c2ccc(Nc3cc4cc(-c5cnn(CC(C)(C)O)c5)ccc4cn3)c(OC)c2)n1C` [Example 63, 1-(4-(3-((2-Methoxy-4-(2-(methoxymethyl)-1-methyl-1H-imidazol-5-yl)phenyl)amino)-isoquinolin-6-yl)-1H-pyrazol-1-yl)-2-methylpropan-2-ol], which IC50 is on record?
A: 1 nM
